Experimental data from patent publication EP2698385A1, “Detection of synthetic cannabinoids” (priority 2012, dated 2014).
Like-named read-outs stand apart in the source and are kept apart here.

Experiments:
Assay type in all cases: binding, sheep
Antibody to Immunogen II = assay: Competitive ELISA (Example 36), antibody RS1833B12, tracer ESC4555/LK959, standard JWH-018; conditions: Cross-reactants at 100 ng/ml; Antibody to Immunogen II
Protocol: (§1) An aqueous solution of each immunogen was formulated with Freund's Complete Adjuvant (FCA) to form an emulsion consisting of 2mg/ml* immunogen in 50% (v/v) FCA. Three sheep were immunised with this emulsion (1° immunisation), 0.25ml being intramuscularly injected at each of four sites in the flank of each animal. Subsequent immunizations (boosts) contained 1mg/ml* immunogen. All boosts were emulsified in 50% (v/v) Freund's Incomplete Adjuvant (FIA) and were administered in the same manner as the 1° immunisation, at monthly intervals. Blood sampling took place 7 to 14 days after each boost. *The general procedure for immunogen administration is outlined above, however, it was necessary to deviate from this protocol in some cases, due to reduced immunogen concentrations (Immunogens II, IV, VII and VIII) and/or amount available (Immunogen VIII). Any deviations from the protocol described are outlined in Table 1A below and highlighted in bold. Table 1A: Amount and volume of immunogens administered for primary and subsequent boosts
The appropriate antibody coating dilution was determined using standard ELISA checkerboard techniques. The plate was incubated overnight at 4°C, washed 4 times over 10 minutes with Tris buffered saline containing Tween 20 (TBST) and tapped dry. […] 75µl of conjugate (appropriate hapten-HRP) diluted in Tris buffer (pH 7.2) containing EDTA, D-mannitol, sucrose, thimerosal and BSA, was added to each of the wells. The appropriate dilution of conjugate was also determined using standard ELISA checkerboard techniques. The plate was incubated at 25°C for 1 hour. Excess unbound conjugate was removed by washing 6 times over a 10 minute period with TBST. 125µl of tetramethylbenzidine (TMB) substrate solution was added to each well of the plate that was then incubated for 20 minutes in the dark at room temperature. The reaction was terminated by addition of 125µl 0.2M H2SO4 to each well. The absorbance was then measured at 450nm using a microtiter plate reader. The data are inputted to a computer program called 'KC Junior'. It is a 4 parameter fit curve and allow the calculatation of concentrations between the standard runs.
In a similar manner to that described above, the wells of a 96-well microtiter plate were coated with the IgG fraction of the antiserum raised to Immunogens I or II.
(§2) The data set our in Tables 3 and 4 are generated using antibodies raised against the indicated Immunogens in a competitive binding assay with the indicated tracers, using the indicated standards: Table 2
Using the calibration curves generated and employing a single level of cross reactants, these were used to determine the cross-reactivity of each immunoassay with these substances. These are the standards used for the IC50 and cross-reactivity data generation • Immunogen I - JWH-018 • Immunogen II - JWH-018 • Immunogen IV - JWH-018 • Immunogen VII - JWH-015 • Immunogen VIII - JWH-018 Table 4: Cross reactivity of the competitive ELISAs for synthetic cannabinoids and their metabolites

[1] = system: Antibody to Immunogen VIII; conditions: Cross-reactants at 100 ng/ml; Antibody to Immunogen VIII
Protocol: as §1
(§3) The wells of an enhanced binding 96 well polystyrene microtiter plate were coated with IgG fraction of antiserum raised to Immunogen I or II, diluted in 10mM Tris, pH8.5 (125µl/well). The appropriate antibody coating dilution was determined using standard ELISA checkerboard techniques. The plate was incubated overnight at 4°C, washed 4 times over 10 minutes with Tris buffered saline containing Tween 20 (TBST) and tapped dry. Standard solutions (JWH-018 for Immunogens I and II) were applied at 0, 0.625, 1.25, 2.5, 5, 10, 20 and 40ng/ml and 50µl of each was added to the appropriate wells. 75µl of conjugate (appropriate hapten-HRP) diluted in Tris buffer (pH 7.2) containing EDTA, D-mannitol, sucrose, thimerosal and BSA, was added to each of the wells. The appropriate dilution of conjugate was also determined using standard ELISA checkerboard techniques. The plate was incubated at 25°C for 1 hour. Excess unbound conjugate was removed by washing 6 times over a 10 minute period with TBST. 125µl of tetramethylbenzidine (TMB) substrate solution was added to each well of the plate that was then incubated for 20 minutes in the dark at room temperature. The reaction was terminated by addition of 125µl 0.2M H2SO4 to each well. The absorbance was then measured at 450nm using a microtiter plate reader. The data are inputted to a computer program called 'KC Junior'. It is a 4 parameter fit curve and allow the calculatation of concentrations between the standard runs. This program is used to calculate the IC50s by dividing the 0ng/ml OD value by 2 and obtaining the concentration value from the curve for this OD.
(§4) In a similar manner to that described above, the wells of a 96-well microtiter plate were coated with the IgG fraction of the antiserum raised to Immunogens IV, VII or VIII. Standard solutions (JWH-018 for Immunogens IV and VIII, JWH-015 for Immunogen VII) were prepared in TBST at 0, 1.25, 2.5, 5, 10, 20, 40 and 80ng/ml and conjugate was employed as detection reagent.
as §2
(§5) A450 = absorbance at 450nm B = absorbance at 450nm at xng/ml standard concentration B0 = absorbance at 450nm at 0ng/ml standard concentration IC50 = standard concentration which produces 50% B/B0
(§6) In order to determine the specificity of the competitive ELISAs, standard solutions of a range of structurally similar synthetic cannabinoids and their metabolites were prepared in TBST. Using the calibration curves generated and employing a single level of cross reactants, these were used to determine the cross-reactivity of each immunoassay with these substances. […]

[2] = system: Antibody to Immunogen VII
Protocol: as §1, §3, §4, §2, §5, §6

Antibody to Immunogen IV = conditions: Cross-reactants at 100 ng/ml; Antibody to Immunogen IV
Protocol: as §1, §3, §4, §2, §5, §6

Antibody to Immunogen I = conditions: Cross-reactants at 100 ng/ml; Antibody to Immunogen I
Protocol: as §1, §3
In a similar manner to that described above, the wells of a 96-well microtiter plate were coated with the IgG fraction of the antiserum raised to Immunogens I or II. Standard solutions (JWH-018 for Immunogen I and II) were applied at 0, 0.625, 1.25, 2.5, 5, 10, 20 and 40ng/ml and conjugate was employed as detection reagent.
as §2, §5, §6

[3] = Cross-reactants at 100 ng/ml, Antibody to Immunogen VII

Structure (SMILES) | %B/B0 (Antibody to Immunogen II) [%] | %B/B0 [1] [%] | %B/B0 [2, 3] [%] | %B/B0 (Antibody to Immunogen IV) [%] | %B/B0 (Antibody to Immunogen I) [%] | %B/B0 ([2]; JWH-015 standard 1.25 ng/ml) [%] | %B/B0 ([2]; JWH-015 standard 2.5 ng/ml) [%] | %B/B0 ([2]; JWH-015 standard 5 ng/ml) [%] | %B/B0 ([2]; JWH-015 standard 10 ng/ml) [%] | %B/B0 ([2]; JWH-015 standard 20 ng/ml) [%] | %B/B0 ([2]; JWH-015 standard 40 ng/ml) [%] | %B/B0 ([2]; JWH-015 standard 80 ng/ml) [%] | IC50 ([2]; Table 3c standard curve, standard concentration which produces 50% B/B0) [ng/mL]
CC(F)CCCn1cc(C(=O)c2cccc3ccccc23)c2ccccc21 (single isomer, unassigned) [AM-2201 N-(4-fluoropentyl) isomer] | 14.60 | 15.00 | 52.70 | 5.72 | 3.45 | – | – | – | – | – | – | – | –
CC(C)C(C)n1cc(C(=O)c2cccc3ccccc23)c2ccccc21 (single isomer, unassigned) [JWH 018 N-(1,2-dimethylpropyl) isomer] | 71.33 | 67.71 | 62.29 | 87.11 | 6.60 | – | – | – | – | – | – | – | –
CCCC(C)n1cc(C(=O)c2cccc3ccccc23)c2ccccc21 (single isomer, unassigned) [JWH-018 N-(1-methylbutyl) isomer] | 51.92 | 63.22 | 67.71 | 73.49 | 12.42 | – | – | – | – | – | – | – | –
CCC(C)Cn1cc(C(=O)c2cccc3ccccc23)c2ccccc21 (single isomer, unassigned) [JWH-018 N-(2-methylbutyl) isomer (JWH-073 2-methylbutyl homologue), JWH-018 N-(2-methylbutyl) isomer] | 28.60 | 85.16 | 58.84 | 29.88 | 3.61 | – | – | – | – | – | – | – | –
CS(=O)(=O)O.Cc1c(C(=O)c2cccc3ccccc23)c2cccc3c2n1[C@H](CN1CCOCC1)CO3 [(+)WIN 55212-2 (mesylate), (+)WIN 55212-2] | 83.87 | 107.12 | 24.08 | 92.76 | 17.00 | – | – | – | – | – | – | – | –
O=C(c1cccc(I)c1)c1cn(CCCCCF)c2ccccc12 [AM-694 3-iodo isomer] | 48.58 | 12.71 | 89.49 | 37.20 | 31.37 | – | – | – | – | – | – | – | –
O=C(c1ccccc1I)c1cn(CCCCCF)c2ccccc12 [AM-694] | 36.18 | 11.92 | 75.66 | 11.30 | 12.17 | – | – | – | – | – | – | – | –
CN1CCCCC1Cn1cc(C(=O)c2cccc3ccccc23)c2ccccc21 (stereo not drawn) [AM-1220] | 77.46 | 106.65 | 49.71 | 86.93 | 4.45 | – | – | – | – | – | – | – | –
O=C(c1cccc2ccccc12)c1cn(CCCC(O)CF)c2ccccc12 (stereo not drawn) [AM-2201 N-(4-hydroxypentyl) metabolite] | 46.55 | 36.41 | 52.75 | 43.62 | 3.80 | – | – | – | – | – | – | – | –
O=C(c1cccc2ccccc12)c1cn(CCCCCF)c2ccccc12 [AM-2201] | 11.72 | 16.74 | 55.28 | 6.20 | 3.72 | – | – | – | – | – | – | – | –
CN1CCCCC1Cn1cc(C(=O)c2ccccc2I)c2ccccc21 (stereo not drawn) [AM-2233] | 86.43 | 91.25 | 72.46 | 92.10 | 16.97 | – | – | – | – | – | – | – | –
CC(C)CCn1cc(C(=O)c2cccc3ccccc23)c2ccccc21 [JWH 018 N-(3-methylbutyl) isomer (JWH-073 3-methylbutyl homologue), JWH 018 N-(3-methylbutyl) isomer] | 30.38 | 53.29 | 48.81 | 12.75 | 3.16 | – | – | – | – | – | – | – | –
CCCCCCn1cc(C(=O)c2cccc3ccccc23)c2cc(O)ccc21 [JWH 019 5-hydroxyindole metabolite] | 17.34 | 101.57 | 87.58 | 93.84 | 19.81 | – | – | – | – | – | – | – | –
CCCCn1cc(C(=O)c2c(C)ccc3ccccc23)c2ccccc21 [JWH 073 2-methylnaphthyl analog] | 43.34 | 78.79 | 76.74 | 34.47 | 21.84 | – | – | – | – | – | – | – | –
CCCCCn1cc(C(=O)c2c(C)ccc3ccccc23)c2ccccc21 [JWH 122 2-methylnaphthyl isomer] | 27.14 | 61.74 | 85.37 | 26.13 | 33.35 | – | – | – | – | – | – | – | –
CCCCCn1cc(C(=O)c2cccc3cc(C)ccc23)c2ccccc21 [JWH 122 6-methylnaphthyl isomer] | 39.17 | 20.46 | 86.66 | 8.12 | 12.55 | – | – | – | – | – | – | – | –
CCCCCn1cc(C(=O)c2cccc3ccc(C)cc23)c2ccccc21 [JWH 122 7-methylnaphthyl isomer] | 38.28 | 38.48 | 92.44 | 13.48 | 36.46 | – | – | – | – | – | – | – | –
CCCCCn1c(C)c(C(=O)c2cccc3ccccc23)c2ccccc21 [JWH-007] | 66.06 | 61.76 | 27.77 | 60.63 | 32.96 | – | – | – | – | – | – | – | –
CCCn1c(C)c(C(=O)c2cccc3ccccc23)c2ccccc21 [JWH-015] | 65.67 | 92.27 | 17.84 | 93.20 | 14.67 | 75 | 62 | 54 | 43 | 34 | 26 | 20 | 5.910
CCCCn1c(C)c(C(=O)c2cccc3ccccc23)c2ccccc21 [JWH-016] | 68.73 | 75.24 | 19.31 | 91.14 | 20.71 | – | – | – | – | – | – | – | –
